Measured values reported in patent US8404286B2, “Use of extracts or of extract compounds from Piper cubeba L. as active components in a medicament for the treatment of cancer” (Viridis Pharmaceutical Limited, priority 2007, dated 2013).

Key:
[1] = test system: LNCap cells; assay: Inhibition of the cell proliferation, LNCap cells; type: cell-based; details: 4 days, 10% FBS culture medium, versus solvent control
Description: (§1) With the liquid extract P9605 prepared according to example 1 were carried out cell proliferation tests. As control was carried along a typical substance of content of the cubeben fruits, the lignan Cubebin.
(§2) For the measurement of the inhibition of the cell proliferation this extract was added to LNCap and to PC-3 cells. The so treated cells were cultivated during 4 days in 10% FES culture medium.
(§3) For comparison the pure lignan Cubebin, that is contained in the extract prepared according to the invention and according to example 1 in an amount up to 20 m/m of the dry substance, was added also to LNCap and to PC-3 cells. The so treated cells were cultivated during 4 days in 10 FBS culture medium.
(§4) Thereby it was proceeded according to T. Lindl, Zell- und Gewebekultur, 4th revised edition, 2000, Spektrum Akademischer Verlag, Heidelberg.
(§5) All obtained datas are given in percents with regard to the solvent control (test without extract and without Cubebin); there are given the average values with Standard deviation from 4 experiments with 3-fold repetition.

[2] = test system: PC-3 cells; assay: Inhibition of the cell proliferation, PC-3 cells; type: cell-based; details: PC-3, 4 days, 10% FBS culture medium, versus solvent control
Description: as §1, §2, §3, §4, §5

[3] = molecular target: T1, 5α-reductase type II (Homo sapiens, UniProt P31213); assay: Inhibition of the 5α-reductase type II activity (HEK293 homogenate, 3H-testosterone to 3H-DHT); type: biochemical; details: homogenate of HEK293 cells over expressing the enzyme
T1 construct: expressed in transfected cells; host or cells: HEK293 (homogenate)
T1 sequence (P31213 1-254): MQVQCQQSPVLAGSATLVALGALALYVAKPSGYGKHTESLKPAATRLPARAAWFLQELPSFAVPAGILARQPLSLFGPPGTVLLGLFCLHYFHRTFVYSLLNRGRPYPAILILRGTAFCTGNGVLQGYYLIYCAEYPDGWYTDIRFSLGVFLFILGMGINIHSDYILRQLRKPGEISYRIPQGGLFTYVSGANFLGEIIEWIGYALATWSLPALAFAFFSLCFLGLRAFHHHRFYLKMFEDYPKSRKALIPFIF
Description: The inhibition of the 5α-reductase type II activity by means of the liquid extract P9605 prepared according to example 1 was determined.
The assay was realized with a homogenate of HEK293 cells that over express the 5α-reductase type II (Reichert W., Hartmann R. W. and Jose J.; 2001, Journal Enzyme Inhibition, Vol. 16, 47-53).
The influence of the extract prepared according to the present invention and of the pure substance Cubebin on the activity of the 5α-reductase type II was determined by means of the measurement of the conversion of ^3H-testosterone in ^3H-DHT.
As control substance was used the known 5α-reductase inhibitor “Finasterid”.
All obtained datas are given in percents with regard to the solvent control (test without extract); there are given the average values with Standard deviation from 4 experiments with 3-fold repetition.

[4] = test system: androgen receptor; assay: Amount of androgen receptor by Western-blot analysis; type: cell-based; details: 2 days, 10% FBS
Description: The influence of the generation of androgen receptors by means of the liquid extract P9605 prepared according to example 1 was determined.
Thereby in one experiment LNCap cells were cultivated during 2 days in 10% FBS culture medium to which were added different concentrations either of the extract prepared according to the present invention or of the pure substance Cubebin.
Then was determined the change of the amount of the androgen receptor by means of the Western-blot analysis.
In FIG. 10 are shown the bands of the androgen receptor.

[5] = test system: prostate specific antigen (PSA); assay: Secretion of the prostate specific antigen (immuno-assay, PSA/DNA); type: cell-based; details: LNCap, 2 days, 10% CSS, different concentrations
[6] = test system: LNCap cells; assay: Apoptosis immuno-assay (mono and oligonucleosomes); type: cell-based; details: 2 days, 10% FBS
Description: The induction of apoptosis by means of the liquid extract P9605 prepared according to example 1 was determined.
As preliminary test was added for the measurement of the induction of apoptosis the tumor necrosis factor TNF-α alone as well as in combination with 100 nM dihydrotestosterone, abbreviated with DHT, to LNCap cells. The so treated cells were cultivated during 2 days in 10% FBS culture medium.
The apoptosis of the cells was measured by applying a commercial apoptosis-immuno-assay-kit in which are detected specifically the DNA and histon fragments that are present as mono and oligonucleosomes.
Analogous experiments were carried out with DHT alone as well as in combination with 10 μg/ml of the extract prepared according to the present invention.

[7] = test system: LNCap cells; details: control value at zero extract; cited from earlier work
[8] = test system: LNCap cells; details: control value at zero extract; cited from earlier work; remark: listed apart in the source

OC1OC[C@H](Cc2ccc3c(c2)OCO3)[C@H]1Cc1ccc2c(c1)OCO2 (mixture of isomers) [Cubebin]
anti-proliferate effect on LNCap cells [1]: anti-proliferate effect on LNCap and PC-3 cells in dependency of the respective dose | anti-proliferate effect on PC-3 cells [2]: anti-proliferate effect on LNCap and PC-3 cells in dependency of the respective dose | IC50-value, 5α-reductase type II [3]: 9.9 µg/mL | inhibitive effect on the activity of the 5α-reductase type II [3]: inhibitive effect | androgen receptor denseness in LNCap cells [4]: reduced increasingly in dependency of the dose | inhibition of the secretion of PSA (PSA/DNA) [5]: inhibit the secretion of the prostate specific antigen (PSA) in dependency of the respective dose

TNF-α
induction of apoptosis ([6]; TNF-α alone): induces the apoptosis of the tumor cells in dependency of the dose

CC(C)(C)NC(=O)[C@H]1CC[C@H]2[C@@H]3CC[C@H]4NC(=O)C=C[C@]4(C)[C@H]3CC[C@]12C [Finasterid]
inhibitive effect on the activity of the 5α-reductase type II [3]: inhibiting effect

C[C@]12CCC(=O)C[C@@H]1CC[C@@H]1[C@@H]2CC[C@]2(C)[C@@H](O)CC[C@@H]12 [DHT, dihydrotestosterone]
effect of DHT on the cell proliferation [7]: enhances the cell proliferation | effect on the TNF-α induced apoptosis ([6]; TNF-α in combination with 100 nM DHT): revoked completely or nearly completely | effect of DHT on the DNA synthesis [8]: enhances the DNA synthesis
